From patent US20050153923A1, “Targeted drug delivery using EphA2 or EphA4 binding moieties” (priority 2003, published 2005)
“Also recorded” adds a separate entry of the source.

Legend:
[1] = test system: MDA-MB-231 cells; assay: Soft agar colonization of MDA-MB-231 cells after antisense transfection; format: cell-based
Method: Monolayers of MDA-MB-231 cells were transfected with 2 μg/ml of EphA2 antisense or inverse antisense (IAS) oligonucleotides at 37° C. for 24 hours. […] The membranes were stripped and reprobed with paxillin antibodies as a loading control (B). The relative mobility of molecular mass standards is shown on the left of panels A and B. (C) MDA-MB-231 cell monolayers, treated with antisense oligonucleotides as detailed above, were suspended in soft agar for 7 days before microscopic analysis of colony formation. […] Results are reported as colonies per high-powered field (HPF).
An antisense oligonucleotide-based approach that decreased EphA2 expression in tumor cells independent of EphA2 activation was developed. […] Inverted antisense oligonucleotides (5′-[…]-3′; SEQ ID NO:109) provided a control. The cells were transfected with oligonucleotides (2 μg/ml) using Lipofectamine PLUS Reagent (Life Technologies, Inc.) according to the manufacturer's protocol. Twenty-four hours post-transfection, the cells were divided. Half of the cells were seeded into soft agar, and the remaining cells were extracted and subjected to Western blot analysis.
MDA-MB-231 cells were suspended in soft agar. […] Colony formation was scored microscopically using an Olympus CK-3 inverted phase-contrast microscope outfitted with a 40× objective. Clusters containing at least three cells were scored as a positive. […]

[2] = test system: EphA2; assay: EphA2 expression in MDA-MB-231 cells after antisense transfection (Western blot); format: cell-based; details: 2 μg/ml oligonucleotide, 24 hours
[3] = test system: MCF-7^EphA2 cells; assay: Soft agar colonization of MCF-7^EphA2 cells; format: cell-based; details: TAM 1 μM, EA2 10 μg/ml
Method: (B) MCF-7 (circles) or MCF-7^EphA2 cells (squares) were implanted into the mammary fatpad (n=15 mice per group) in the presence of supplemental estrogen.
MCF-7^EPhA2 cells were incubated in the presence of 3 μg/ml of EA2 for the time indicated prior to sample extraction and Western blot analyses with an EphA2-specific antibody (D7). (B) The membrane was stripped and re-probed with a β-catenin-specific antibody as a loading control.
(§1) Growth assays were conducted as follows. MCF-7^neo (control cells) or MCF7^EphA2 cells were seeded in 96-well plates. […] Colony formation in soft agar was performed as previously described (Zelinski et al., 2001, Cancer Res. 61: 2301-6) and scored microscopically, defining clusters of at least three cells as a positive. The data represent the average of ten separate high-power microscopic fields from each sample and representative of at least three separate experiments. Error bars represent the standard error of the mean of at least three different experiments as determined using Microsoft Excel software.
Growth MCF-7^EphA2 cells which had decreased EphA2 expression levels was assayed in soft agar.

[4] = test system: control MCF-7 cells; assay: Soft agar colonization of control MCF-7 cells; format: cell-based; details: TAM 1 μM; EA2 10 μg/ml; FIG. 13C
Method: as §1, with “software. […]” for “software.”

[5] = test system: MCF-7^EphA2 cells; assay: Tumorigenic potential of MCF-7^EphA2 vs control cells in mammary fat pad of athymic mice under tamoxifen; format: in vivo; details: tamoxifen 1 mg oral gavage 6 days per week, from 17 days post-implantation; supplemental estrogen; FIG. 11B
Method: (B) MCF-7 (circles) or MCF-7^EphA2 cells (squares) were implanted into the mammary fatpad (n=15 mice per group) in the presence of supplemental estrogen. […] Tumor volume of tamoxifen treated (black circles and squares) and saline treated (white circles and squares) animals was measured at the indicated time.
Consistent with increased soft agar colonization, orthotopically implanted MCF-7^EphA2 cells formed larger, more rapidly growing tumors in vivo. Six to eight week-old athymic (nu/nu) mice were purchased from Harlan Sprague Dawley (Indianapolis, Ind.). When indicated, a controlled release estradiol pellet (0.72 mg 17β-estradiol, 60-day formulation) was injected subcutaneously via a sterile 14-gauge trocar 24 hours prior to tumor implantation and pellets were replaced every 60 days for those experiments spanning>60 days in duration. 1×10^6 MCF-7^neo or MCF7^EphA2 cells were injected into the mammary fat pad under direct visualization.

Compound: 5′-CCAGCAGTACCGCTTCCTTGCCCTGCGGCCG-3′ (all phosphorothioate, sugars by position and methylation of C not given here; listed as Homo Sapiens) [EphA2 antisense oligonucleotides, phosphorothioate-modified antisense oligonucleotides unique to EphA2]
- Decrease of soft agar colonization vs matched controls ([1]; 2 μg/ml oligonucleotide, 7 days in soft agar, FIG. 14C): at least 60%
- Colony formation in soft agar vs inverted antisense control ([1]; P<0.002): significantly impaired
- EphA2 expression / protein level after oligonucleotide transfection [2]: selectively decreased EphA2 expression in MDA-MB-231 cells; also recorded: decreases EphA2 protein levels

Compound: 5′-GCCGCGTCCCGTTCCTTCACCATGACGACC-3′ (listed as DNA, chemistry not given here; listed as Homo sapiens) [IAS, inverted antisense control oligonucleotide, reference compound]
- EphA2 expression / protein level after oligonucleotide transfection [2]: did not

Compound: C[C@]12CC[C@@H]3c4ccc(O)cc4CC[C@H]3[C@@H]1CC[C@@H]2O [estradiol, 17β-estradiol, reference compound]
- Soft agar colonization response / tamoxifen sensitivity, MCF-7^EphA2 cells ([3]; 1 μM 17β-estradiol, FIGS. 11A, 13C (11A also MCF-7)): overcame the inhibitory effects of tamoxifen

Compound: tamoxifen [reference compound]
- Soft agar colonization response, control MCF-7 cells [4]: sensitive to tamoxifen
- Sensitivity of tumorigenic potential to tamoxifen, MCF-7^EphA2 vs control (MCF-7^neo) [5]: less sensitive to tamoxifen; also recorded: lower inhibitory effects of tamoxifen on MCF-7^EphA2 relative to control cells
- Inhibition / decrease of soft agar colonization, MCF-7^EphA2 cells ([3]; 14 days): 25%
